Laboratory results as given in patent US20180214582A1, “METHOD FOR DIAGNOSING CARCINOMAS USING IRGD AND MAGENTIC RESONANCE TOMOGRAPHY (MRT)” (Albrecht Piiper, priority 2015, published 2018).

Key:
[1] = system: HCCs in TGFα/c-myc mice; assay: Gd-DTPA-enhanced MRI with and without peptide in TGFα/c-myc mice with HCC; format: in vivo; conditions: for contrast of HCC tumors in the liver in Gd-DTPA-enhanced MRI: T1-weighted 3T MRI
Excerpt: (§1) Male TGFα/c-myc bitransgenic mice were created by crossing homozygous metallothionein/TGFα and albumin/c-myc single-transgenic mice in a CD13B6CBA background as described (Murakami et al., 1993; Haupenthal et al., 2012). After weaning, the animals were given ZnCl2 by way of the drinking water to induce tumors via the expression of TGFα. Starting at an age of 20 weeks, the TGFα/c-myc animals underwent a Primovist-enhanced MRI scan in a 3T MRI Scanner (Siemens 113 Magnetom Trio, Siemens Medical Solutions) as described (Haupenthal et al., 2012; Watcharin et al., 2015; Korkusuz et al., 2013).
So as to determine the effect of iRGD on the Gd-DTPA-enhanced MRI in the HCC, TGFα/c mice with HCC according to a prior Gd-EOB-DTPA (Primovist)-enhanced MRI one week earlier, or nude mice with HepG2 or Huh7 tumors, were included in the experiments. The mice were anesthetized by way of intraperitoneal injection of ketamine (70 mg/kg body weight) and xylazine (10 mg/kg body weight), followed by a basal T1-weighted MRI. Directly thereafter, a Gd-DTPA-enhanced MRI was conducted (Haupenthal et al., 2012). Twelve to 24 hours later, either iRGD or the RGD control peptide was injected ([…] each via the tail vein), followed by a basal and a Gd-DTPA-enhanced MRI (Watcharin et al., 2015). For the quantitative analysis of the MRI data, the signal intensities in user defined “regions of interest” (ROI) were used (Korkusuz et al., 2013). ROIs were placed in the liver and in the tumor tissue. The changes in the signal intensities were ascertained by subtraction of the pre-contrast value from those after the administration of Gd-DTPA. The changes in the signal intensities of the tumors and the livers due to iRGD or the RGD control peptide were indicated as multiples of the values of the Gd-DTPA MRI with prior injection of PBS.
It was examined whether the tumor-permeabilizing effect of iRGD can already be detected by a Gd-DTPA-enhancing MRI, a widely used clinical procedure, in TGFα/c-myc mice with endogenous HCC. For this purpose, TGFα/c-myc mice with HCCs discovered one week prior according to Gd-EOB-DTPA-enhanced MRI were used. […] 12 to 24 hours later, the mice were administered iRGD or the RGD control peptide, followed by another Gd-DTPA-enhanced MRI.
TGFα/c-myc mice in which HCCs had been detected one week prior by way of Gd-EOB-DTPA-enhanced MRI were anesthetized, followed by a basal T1-weighted MRI, and a Gd-DTPA-enhanced MRI directly thereafter. 12 to 24 hours later, either iRGD or RGD control peptide (con. peptide) was injected (100 μL each via the tail vein, 4 mmol/kg) into the same animals, followed by a basal MRI and a Gd-DTPA-enhanced MRI. A. Gd-DTPA-enhanced MRI of TGFα/c-myc mice with HCC (left), followed by an injection of iRGD and another Gd-DTPA-enhanced MRI 12 hours thereafter. Arrows mark the tumor.
B. quantitative analysis of the MRI data. Values are mean values±SD; n=12.

[2] = system: HepG2 xenotransplants; assay: Doxorubicin tissue concentration after i.v. peptide in nude mice with HepG2 xenotransplants; format: in vivo; conditions: nude mice with subcutaneous HepG2 xenotransplants; peptide 4 mmol/kg i.v., doxorubicin 20 mg/kg iv
Method: HepG2- and Huh7 cells (ATCC and RIKEN BioResource Center) were cultivated in DMEM with 10% FBS and penicillin/streptomycin (Life Technologies). 5 million cells in 100 μL PBS were injected into the sides of NMRI Foxn1 nude mice (Harlan Laboratories B.V.). Four weeks later the mice were assigned to the test groups. Furthermore, the effect of iRGD on the tissue concentrations of intravenously applied doxorubicin, a tumor therapeutic agent that can be detected due to the inherent fluorescence in tissue sections and tissue extracts, in the TGFα/c-myc and in the HepG2 xenotransplant HCC mouse model was analyzed. […] The control peptide had no effects on the doxorubicin level in any of the tissues. TGFα/c-myc mice with radiologically verified HCCs (A) or nude mice with subcutaneous HepG2 xenotransplants (B) were intravenously injected with 4 mmol/kg iRGD or control peptide (each in PBS), or treated with PBS alone, followed by a doxorubicin (20 mg/kg iv) injection 10 minutes later. The tissues were collected another 30 minutes later and stored, and the doxorubicin concentration was determined. The values are mean values±SD; n=5 to 6. Asterisks indicate a significant difference (**P<0.01; ***P<0.001).

[3] = system: HCCs in TGFα/c-myc mice; assay: Doxorubicin tissue concentration after i.v. peptide in TGFα/c-myc mice with HCC; format: in vivo; conditions: peptide 4 mmol/kg i.v.; for doxorubicin level in the HCCs: doxorubicin 20 mg/kg iv 10 minutes later, tissues 30 minutes later; for levels of doxorubicin in the organs: doxorubicin 20 mg/kg iv, FIG. 2A
Excerpt: as §1
Furthermore, the effect of iRGD on the tissue concentrations of intravenously applied doxorubicin, a tumor therapeutic agent that can be detected due to the inherent fluorescence in tissue sections and tissue extracts, in the TGFα/c-myc and in the HepG2 xenotransplant HCC mouse model was analyzed. […] The control peptide had no effects on the doxorubicin level in any of the tissues.
TGFα/c-myc mice with radiologically verified HCCs (A) or nude mice with subcutaneous HepG2 xenotransplants (B) were intravenously injected with 4 mmol/kg iRGD or control peptide (each in PBS), or treated with PBS alone, followed by a doxorubicin (20 mg/kg iv) injection 10 minutes later. The tissues were collected another 30 minutes later and stored, and the doxorubicin concentration was determined. The values are mean values±SD; n=5 to 6. Asterisks indicate a significant difference (**P<0.01; ***P<0.001).

[4] = system: HCCs in TGFα/c-myc mice; assay: Evans blue accumulation after i.v. peptide in TGFα/c-myc mice with endogenous HCC; format: in vivo; conditions: peptide 4 mmol/kg i.v., then Evans blue; for concentration of Evans blue in normal tissue (liver, kidney, spleen and lung): photometry; for Evans blue quantity in the tumors compared to HCCs of mice injected with PBS or control peptide: tissues 30 minutes later, photometric quantification
Excerpt: as §1
So as to examine whether intravenously applied iRGD increases the permeability of the HCC, the effect of intravenously applied iRGD on the levels of co-injected Evans blue, an albumin-binding dye, in TGFα/c-myc mice with endogeneous HCCs according to a Gd-EOB-DTPA-enhanced MRI were analyzed. For this purpose, the mice with HCC were intravenously injected with iRGD, an RGD control peptide without a CendR motif, or PBS, followed by the injection of Evans blue […]. Another 30 minutes later, the animals were terminally perfused.
(§2) TGFα/c-myc mice with MRI-verified HCCs (A) or mice with subcutaneous HepG2 (B) or Huh7 xenotransplants (C) were intravenously injected with 4 mmol/kg iRGD or control peptide (each in PBS), or PBS was injected alone, followed by an injection of EB 5 minutes later. The tissues were harvested after another 30 minutes. The EB accumulation in the tissues was determined by way of photometry. The data involves mean values±SD; n=4 to 5. Asterisks indicate a significant difference (* P<0.05; * P<0.01; *** P<0.001). n.s., not significant.

[5] = system: Huh7 xenotransplants; assay: Gd-DTPA-enhanced MRI with and without peptide in nude mice with Huh7 xenotransplants; format: in vivo; conditions: p=0.0081
Method: (§3) HepG2- and Huh7 cells (ATCC and RIKEN BioResource Center) were cultivated in DMEM with 10% FBS and penicillin/streptomycin (Life Technologies). 5 million cells in 100 μL PBS were injected into the sides of NMRI Foxn1 nude mice (Harlan Laboratories B.V.). Four weeks later the mice were assigned to the test groups.
(§4) So as to determine the effect of iRGD on the Gd-DTPA-enhanced MRI in the HCC, TGFα/c mice with HCC according to a prior Gd-EOB-DTPA (Primovist)-enhanced MRI one week earlier, or nude mice with HepG2 or Huh7 tumors, were included in the experiments. The mice were anesthetized by way of intraperitoneal injection of ketamine (70 mg/kg body weight) and xylazine (10 mg/kg body weight), followed by a basal T1-weighted MRI. Directly thereafter, a Gd-DTPA-enhanced MRI was conducted (Haupenthal et al., 2012). Twelve to 24 hours later, either iRGD or the RGD control peptide was injected ([…] each via the tail vein), followed by a basal and a Gd-DTPA-enhanced MRI (Watcharin et al., 2015). For the quantitative analysis of the MRI data, the signal intensities in user defined “regions of interest” (ROI) were used (Korkusuz et al., 2013). ROIs were placed in the liver and in the tumor tissue. The changes in the signal intensities were ascertained by subtraction of the pre-contrast value from those after the administration of Gd-DTPA. […]

[6] = system: 4T1 tumor; assay: Gd-DTPA-enhanced MRI with and without peptide in syngeneic 4T1 breast cancer mouse model; format: in vivo; conditions: BALB/c mice, 4T1 cells in mammary gland no. 4; peptide 4 mmol/kg; p<0.05
Method: 4T1 cells (ATCC) were cultivated in RPMI 1640 medium with 10% FBS and penicillin/streptomycin (Life Technologies). BALB/c mice were injected with 2.5×10^4 4T1 cells into mammary gland no. 4 of the mouse, and the tumors were allowed to grow for two weeks.
Furthermore, it was examined to what extent iRGD also influences the MRI signal of the tumor in the Gd-DTPA-enhanced MRI in the syngeneic 4T1 breast cancer mouse model.
Effect of iRGD and the RGD control peptide on the increase in the signal intensity in the Gd-DTPA-enhanced MRI in the liver and in the 4T1 tumors in BALB/c mice. BALB/c mice were injected with 2.5×10^4 4T1 cells into mammary gland no. 4 of the mouse. Two weeks later, the mice were anesthetized, followed by a basal T1-weighted MRI, and a Gd-DTPA-enhanced MRI directly thereafter. 12 to 24 hours later, either iRGD or RGD control peptide (con. peptide) was injected (100 μL each via the tail vein, 4 mmol/kg) into the same animals, followed by a basal MRI and a Gd-DTPA-enhanced MRI. The data was quantitatively analyzed. Values are mean values±SD; n=6.

[7] = system: Huh7 xenotransplants; assay: Evans blue accumulation after i.v. peptide in nude mice with Huh7 xenotransplants; format: in vivo, NMRI Foxn1 nude mice; conditions: subcutaneous Huh7 xenotransplants, peptide 4 mmol/kg i.v., p<0.001
Method: as §3
(§5) So as to examine whether the tumor-permeabilizing effect of iRGD also occurs in HCC nude mice tumor models, the effect of intravenously applied iRGD on the level of co-applied Evans blue in nude mice which had HepG2 or Huh7 xenotransplants was analyzed. iRGD effectuated an increase in the concentrations of co-applied Evans blue in HepG2-xenotransplanted and Huh-7-xenotransplanted tumors by a factor of 3.4 (p≤0.002) (in HepG2 tumors) and 2.6-fold in Huh7 tumors (p<0.001) compared to the corresponding tumors of nude mice injected with PBS and the control peptide (FIGS. 1B and C).
as §2, with “Asterisks indicate a significant difference (* P<0.05; * P<0.01; *** P<0.001). n.s., not significant.” left out

[8] = system: HepG2 tumors; assay: Gd-DTPA-enhanced MRI with and without peptide in nude mice with HepG2 xenotransplants; format: in vivo
Method: as §3, §4

[9] = system: HepG2 xenotransplants; assay: Evans blue accumulation after i.v. peptide in nude mice with HepG2 xenotransplants; format: in vivo, NMRI Foxn1 nude mice; conditions: subcutaneous HepG2 xenotransplants, peptide 4 mmol/kg i.v., p≤0.002
Method: as §3, §5
as §2, with “Asterisks indicate a significant difference (* P<0.05; * P<0.01; *** P<0.001). n.s., not significant.” left out

Row | Compound | contrast of HCC tumors in the liver in Gd-DTPA-enhanced MRI [1] | signal intensities in normal organs in Gd-DTPA-enhanced MRI [1] | doxorubicin level in the HCCs (HepG2 xenotransplants) [2] | doxorubicin level in the HCCs [3] | levels of doxorubicin in the organs [3] | concentration of Evans blue in normal tissue (liver, kidney, spleen and lung) [4] | Evans blue quantity in the tumors compared to HCCs of mice injected with PBS or control peptide [4] | rise in signal intensity of the tumors in Gd-DTPA-enhanced MRI (Huh7) [5] [fold] | increase of signal intensities in the tumors in Gd-DTPA-enhanced MRI vs RGD control peptide or PBS ([1]; peptide 4 mmol/kg via tail vein, quantitative densitometric analysis, n=12) [fold] | MRI signal in the Gd-DTPA-enhanced MRI in the 4T1 tumor [6] | increase in concentration of co-applied Evans blue in Huh7 tumors vs PBS and control peptide [7] [fold] | signal intensity of the tumors in Gd-DTPA-enhanced MRI (HepG2) ([8]; p=0.0311) | rise in signal intensity of the tumors in Gd-DTPA-enhanced MRI, other HCC mouse models (HepG2) ([8]; stated for 'the other HCC mouse models') [fold] | increase in concentration of co-applied Evans blue in HepG2 tumors vs PBS and control peptide [9] [fold]
1 | O=C([O-])CN(CCN(CC(=O)[O-])CC(=O)O)CCN(CC(=O)[O-])CC(=O)O.[Gd+3] [Gd-DTPA, reference compound] | highly negative contrasts |  |  |  |  |  |  |  |  |  |  |  |  | 
2 | CRGDDGPKC [RGD control peptide, RGD control peptide without a CendR motif; acquired from GenScript, reference compound] | negatively contrasted | no effects | no effects | no effects | no effects | had no impact | had no effect |  |  |  |  |  |  | 
3 | CRGDKGPDC [iRGD] | contrasting positively | no effects | increase in the doxorubicin level | increase in the doxorubicin level | no effects | had no impact | three-fold increase | 1.5 | 2 | significant increase in the MRI signal | 2.6 | rise in the signal intensity | ≤ 2 | 3.4
